Results reported in article PMC9536713, “Synthesis and Preclinical Evaluation of ^177Lu-Labeled Radiohybrid PSMA Ligands for Endoradiotherapy of Prostate Cancer” (Journal of Nuclear Medicine, 2022).
Read-outs that look alike come from different tables or passages of the source. Each block holds one compound with its values, some of them ahead of it.

What was measured:
[1] = parameters: method as in earlier work; conditions: patients; cited from earlier work
[2] = target: T1, PSMA (Homo sapiens, UniProt Q04609); experiment: Competitive binding (IC50) on LNCaP cells against ([125I]IBA)KuE
T1 construct: endogenous in cells; host or cells: LNCaP cells
T1 sequence (Q04609 whole entry): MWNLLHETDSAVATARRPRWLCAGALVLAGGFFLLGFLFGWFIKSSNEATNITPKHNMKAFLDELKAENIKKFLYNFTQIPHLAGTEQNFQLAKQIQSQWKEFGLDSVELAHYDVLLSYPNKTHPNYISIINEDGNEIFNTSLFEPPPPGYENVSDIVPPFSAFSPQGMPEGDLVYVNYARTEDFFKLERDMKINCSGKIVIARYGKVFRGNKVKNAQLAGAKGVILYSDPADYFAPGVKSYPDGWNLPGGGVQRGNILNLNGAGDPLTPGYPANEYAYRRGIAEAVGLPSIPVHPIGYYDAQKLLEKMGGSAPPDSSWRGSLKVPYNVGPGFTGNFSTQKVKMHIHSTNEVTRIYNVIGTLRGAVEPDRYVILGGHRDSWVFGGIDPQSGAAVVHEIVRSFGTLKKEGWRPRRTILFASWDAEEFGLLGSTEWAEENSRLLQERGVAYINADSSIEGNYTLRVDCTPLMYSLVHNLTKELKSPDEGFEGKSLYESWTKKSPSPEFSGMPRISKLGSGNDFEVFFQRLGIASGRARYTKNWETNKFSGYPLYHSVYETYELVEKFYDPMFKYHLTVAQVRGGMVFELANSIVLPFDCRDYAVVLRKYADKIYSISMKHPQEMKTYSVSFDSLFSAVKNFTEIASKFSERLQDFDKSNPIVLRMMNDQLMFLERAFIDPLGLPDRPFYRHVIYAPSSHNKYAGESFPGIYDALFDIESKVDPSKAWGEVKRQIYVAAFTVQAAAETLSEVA
Procedure: (§1) Competitive binding studies were determined on LNCaP cells (1.5 × 10^5 cells in 0.25 mL/well) after incubation at 4°C for 1 h, using (((S)-1-carboxy-5-(4-([^125I]iodo)benzamido)pentyl)carbamoyl)-L-glutamic acid ([^125I]IBA)KuE; 0.2 nM/well) as the reference radioligand (n = 3). Internalization studies of the radiolabeled ligands (1.0 nM/well) were performed on LNCaP cells (1.25 × 10^5 cells in 0.25 mL/well) at 37°C for 1 h and accompanied by ([^125I]IBA)KuE (0.2 nM/well) as a reference. Data were corrected for nonspecific binding and normalized to the specific internalization observed for the reference (n = 3), as previously published ([8]).

[3] = target: T2, PSMA (LNCaP cells) (Homo sapiens, UniProt Q04609); experiment: PSMA-mediated internalization into LNCaP cells; type: cell-based; conditions: 1 h, 37°C, 1.0 nM/well, n = 3
T2 construct: endogenous in cells; host or cells: LNCaP cells
T2 sequence (Q04609 whole entry): as above
Procedure: as §1

[4] = target: T3, human serum albumin (HSA) (Homo sapiens, UniProt P02768); experiment: Binding to HSA by albumin-mediated size-exclusion chromatography (AMSEC), apparent molecular weight; type: in vitro ADME; conditions: HSA buffer at physiologic concentration as mobile phase, room temperature, window 2.1-70.2 kDa
T3 construct: purchased Biowest
T3 sequence (P02768 25-609): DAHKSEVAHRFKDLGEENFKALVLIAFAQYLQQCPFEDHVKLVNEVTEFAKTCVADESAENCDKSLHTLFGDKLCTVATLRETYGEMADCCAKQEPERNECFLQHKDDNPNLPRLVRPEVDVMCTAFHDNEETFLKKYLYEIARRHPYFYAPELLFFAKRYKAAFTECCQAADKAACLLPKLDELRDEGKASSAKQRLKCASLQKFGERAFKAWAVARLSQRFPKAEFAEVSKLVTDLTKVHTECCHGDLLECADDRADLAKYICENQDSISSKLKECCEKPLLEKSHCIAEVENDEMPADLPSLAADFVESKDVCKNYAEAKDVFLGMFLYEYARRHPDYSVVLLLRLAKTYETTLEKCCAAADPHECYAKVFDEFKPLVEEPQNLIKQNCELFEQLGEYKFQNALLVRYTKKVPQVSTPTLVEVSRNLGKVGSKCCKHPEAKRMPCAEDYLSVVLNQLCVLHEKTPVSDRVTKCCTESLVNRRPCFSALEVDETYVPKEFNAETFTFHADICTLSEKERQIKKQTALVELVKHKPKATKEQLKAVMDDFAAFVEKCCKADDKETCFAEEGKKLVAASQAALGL
Procedure: Binding of ^177Lu-labeled ligands to HSA was assessed by albumin-mediated size-exclusion chromatography (AMSEC), a novel method that has recently been developed by our group to determine the apparent molecular weight (AMW) of a compound in the presence of HSA. A dedicated and detailed description of the AMSEC method will be published elsewhere to cover the context and the development process of this method in its entirety. Briefly, a gel filtration size-exclusion column (Superdex 75 Increase 10/300 GL; fractionation range, 70–3 kDa; GE Healthcare) was calibrated as recommended by the manufacturer using a commercially available set of proteins (Gel Filtration LMW Calibration Kit; GE Healthcare). AMSEC experiments were performed by injection of the various radioligands using an HSA buffer at physiologic concentration (Biowest) as the mobile phase at room temperature. Depending on the strength of the HSA/ligand interaction during the chromatographic procedure, an injected radioligand (1.0 MBq, 10–20 GBq/μmol) can show a reduced retention time that correlates to AMWs higher than the actual, physical, molecular weight (the latter being for all investigated ligands < 2 kDa, and thus below the column fractionation range). The stronger this interaction, the longer the mean time the ligand is bound to HSA during the chromatographic process and the faster the ligand is eluted from the column. By means of calibration, the retention time can be translated into a ligand-specific AMW (expressed in kDa) as a parameter allowing quantification of the extent of HSA binding. The detection window ranges between 2.1 kDa (cutoff value, determined by [^18F]fluoride; no HSA interaction) and 70.2 kDa (experimental molecular weight of HSA; maximum HSA interaction). [^177Lu]Lu-rhPSMA-7.3 served as an internal standard during AMSEC studies (30.4 ± 0.5 kDa; n = 10).

[5] = system: LNCaP tumor xenografts; parameters: method as in PMID 30136051; conditions: 24 h after injection, cited from earlier work
[6] = parameters: method as in PMID 34531260; conditions: patients; cited from earlier work
[7] = patients; cited from earlier work
[8] = system: LNCaP tumor xenografts; experiment: Biodistribution and small-animal SPECT/CT in LNCaP tumor-bearing mice, 24 h after injection; type: in vivo, male CB-17 SCID mice
Procedure: All animal experiments were conducted in accordance with general animal welfare regulations in Germany (German animal protection act, as amended on May 18, 2018, article 141 G, version March 29, 2017, I 626, approval 55.2-1-54-2532-71-13) and the institutional guidelines for the care and use of animals. LNCaP tumor xenografts were established in 6- to 8-wk-old male CB-17 SCID mice as described previously ([8]).
The ^177Lu-labeled PSMA ligands (2–5 MBq; 0.1 nmol) were injected under isoflurane anesthesia into the tail vein of mice, which were euthanized 24 h after injection (n = 4–5). Selected organs were removed, weighed, and measured in a γ-counter. All rhPSMA ligands were evaluated during the same period (first quarter of 2020), whereas ^177Lu-labeled PSMA-617 and PSMA I&T ([17]) were assessed in 2016, using the identical cell line, mouse model, and experimental procedure.
Static images of ^177Lu-labeled ligands in euthanized mice were recorded 24 h after injection directly after blood collection, with an acquisition time of 45 min using a high-energy, general-purpose rat-and-mouse collimator and a stepwise multiplanar bed movement. For imaging studies, a VECTor4 small-animal SPECT/PET/optical imaging/CT device from MILabs was applied. Data were reconstructed using MILabs.Rec software (version 10.02) and PMOD software (version 4.0; PMOD Technologies LLC). After imaging, the mice underwent biodistribution studies.

[9] = Lipophilicity, n-octanol/phosphate-buffered saline distribution (log D7.4); type: physicochemical; conditions: pH 7.4, n = 6
Procedure: Approximately 1 MBq of the ^177Lu-labeled PSMA ligand was dissolved in 1 mL of a 1:1 mixture (v/v) of phosphate-buffered saline (pH 7.4) and n-octanol (n = 6). After vigorous mixing of the suspension for 3 min, the vial was centrifuged at 15,000g for 3 min, and 100-μL aliquots of both layers were measured in a γ-counter. Finally, the ratio of the radioactivity detected in the n-octanol sample and the phosphate-buffered saline buffer was calculated and expressed as distribution ratio log D7.4.

[10] = LNCaP tumor-bearing SCID mice, identical conditions
[11] = LNCaP tumor-bearing mice, from previously published data
[12] = 24 h after injection, LNCaP tumor-bearing mice
[13] = male, CB-17 SCID, mouse, in vivo, 24 h
[14] = 24 h after injection, LNCaP tumor-bearing SCID mice, mean ± SD, n = 4-5

SMILES: CC(C)(C)[Si]([18F])(c1ccc(C(=O)NC[C@@H](NC(=O)CC[C@@H](C(=O)O)N2CCN(CC(=O)[O-])CCN(CC(=O)[O-])CCN(CC(=O)[O-])CC2)C(=O)N[C@H](CCCCNC(=O)CCC(=O)NCCC[C@@H](NC(=O)CC[C@H](NC(=O)N[C@@H](CCC(=O)O)C(=O)O)C(=O)O)C(=O)O)C(=O)O)cc1)C(C)(C)C.[Ga+3] [[^18F]Ga-rhPSMA-7.3]
fold higher tumor uptake than diastereomeric mixture [18F]Ga-rhPSMA-7 [1]: 1.6 fold
fold lower excretion into the bladder than diastereomeric mixture [18F]Ga-rhPSMA-7 [1]: 5 fold
fold lower kidney uptake than diastereomeric mixture [18F]Ga-rhPSMA-7 [1]: 1.6 fold

IC50 ([2]; LNCaP cells, 1 h, 4°C, ([125I]IBA)KuE 0.2 nM/well as reference radioligand, n = 3, read-out: PSMA binding affinity (half-maximal inhibitory concentration)): 4.2 ± 0.8 nM
PSMA-mediated internalization as percentage of reference ligand ([125I]IBA)KuE [3]: 145% ± 14%
apparent molecular weight (AMW) [4]: 5.3 kDa
SMILES: O=C([O-])CC[C@H](NC(=O)N[C@@H](CCCCNC(=O)CCCCCCC(=O)NCCCC[C@@H](NC(=O)[C@@H](Cc1ccccc1)NC(=O)[C@@H](Cc1ccc(O)c(I)c1)NC(=O)CC[C@H](C(=O)[O-])N1CCN(CC(=O)[O-])CCN(CC(=O)[O-])CCN(CC(=O)[O-])CC1)C(=O)[O-])C(=O)[O-])C(=O)[O-].[177Lu+3].[H+].[H+].[H+].[H+].[H+] [[^177Lu]Lu-PSMA I&T]
kidney uptake [5, 10]: 34.7 ± 17.2 %ID/g
tumor uptake [5, 10]: 4.1 ± 1.1 %ID/g
tumor-to-blood ratio [5, 11]: 408
tumor-to-kidney ratio [5, 11]: 0.2
effective dose (tumor) [6]: 2.6 ± 2.4 mGy/MBq
absorbed dose to the kidney [7]: 0.7 ± 0.2 Gy/GBq

SMILES: O=C(O)CC[C@H](NC(=O)N[C@@H](CCCCNC(=O)[C@H](Cc1ccc2ccccc2c1)NC(=O)[C@H]1CC[C@H](CNC(=O)CN2CCN(CC(=O)O)CCN(CC(=O)O)CCN(CC(=O)O)CC2)CC1)C(=O)O)C(=O)O [[^177Lu]Lu-PSMA-617, metal not drawn]
IC50 [2]: 3.3 ± 0.2 nM
PSMA-mediated internalization as percentage of reference ligand ([125I]IBA)KuE [3]: 203% ± 10%
apparent molecular weight (AMW) [4]: 13.7 kDa
tumor-to-kidney ratio [8, 12]: 5.9
kidney uptake [8, 13]: 1.4 ± 0.4 %ID/g
tumor uptake [8, 13]: 7.5 ± 0.9 %ID/g
tumor-to-blood ratio [8, 13]: 1,424

log D7.4 [9]: −3.8
apparent molecular weight (AMW) [4]: 25.1 kDa
kidney uptake as percentage of that of [177Lu]Lu-rhPSMA-7.3 ([8]; 24 h after injection): 20%
tumor-to-blood ratio, times higher than for [177Lu]Lu-PSMA-617 ([8]; 24 h after injection): 8 times
tumor-to-blood ratio, times higher than for [177Lu]Lu-rhPSMA-7.3 ([8]; 24 h after injection): 3 times
kidney uptake [8, 14]: 2.0 ± 0.8 %ID/g
tumor uptake [8, 14]: 9.8 ± 0.3 %ID/g
tumor-to-blood ratio [8, 12]: 11,498
tumor-to-kidney ratio [8, 12]: 5.7
tracer uptake in tumor of the imaged mouse ([8]; single mouse of SPECT/CT image, 24 h after injection, from subsequent biodistribution): 9.4 %ID/g
SMILES: CC(C)(C)[Si](F)(c1ccc(C(=O)NC[C@@H](NC(=O)CN2CCN(CC(=O)[O-])CCN(CC(=O)[O-])CCN(CC(=O)[O-])CC2)C(=O)N[C@H](CCCCNC(=O)CCC(=O)NCCC[C@@H](NC(=O)CC[C@H](NC(=O)N[C@@H](CCC(=O)O)C(=O)O)C(=O)O)C(=O)O)C(=O)O)cc1)C(C)(C)C.[177Lu+3] [[^177Lu]Lu-rhPSMA-10.1]
